Reference: patent publication US10899759B2, “Positive allosteric modulators of the muscarinic acetylcholine receptor M1” (Vanderbilt University, priority 2016, dated 2021)
Read-outs that look alike come from different tables or passages of the source.

Molecular target: T1, human mAChR M1 (Homo sapiens, UniProt P11229)
T1 construct: host or cells: CHO-K1
T1 sequence (P11229 1-460): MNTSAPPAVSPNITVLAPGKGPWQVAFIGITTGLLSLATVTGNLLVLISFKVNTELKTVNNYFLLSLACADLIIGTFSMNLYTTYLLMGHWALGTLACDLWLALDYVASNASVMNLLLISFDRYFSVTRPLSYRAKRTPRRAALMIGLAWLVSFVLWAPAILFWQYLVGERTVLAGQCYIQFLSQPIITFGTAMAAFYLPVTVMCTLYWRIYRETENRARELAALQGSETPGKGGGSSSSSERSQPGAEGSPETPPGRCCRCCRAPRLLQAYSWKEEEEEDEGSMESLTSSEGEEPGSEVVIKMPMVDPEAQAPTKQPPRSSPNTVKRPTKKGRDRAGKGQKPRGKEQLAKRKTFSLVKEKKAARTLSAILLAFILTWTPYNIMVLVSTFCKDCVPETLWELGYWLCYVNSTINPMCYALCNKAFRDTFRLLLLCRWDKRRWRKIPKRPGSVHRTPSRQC
Assay: mAChR M1 cell-based functional assay (calcium mobilization, Fluo-4, FDSS)
Conditions: for EC50: positive allosteric modulator activity as increase in the EC20 acetylcholine response
Procedure: Chinese hamster ovary (CHO-K1) cells stably expressing rat (r)M1 were purchased from the American Type Culture Collection and cultured according to their indicated protocol. […] To make stable rM2, hM2, rM3, hM4, and rM4 cell lines for use in calcium mobilization assays, these cells also were stably transfected with a chimeric G-protein (Gqi5) (provided by B. R. Conklin, University of California, San Francisco) using Lipofectamine 2000. rM1, hM1, rM3, hM3, rM5, and hM5 cells were grown in Ham's F-12 medium containing 10% heat-inactivated fetal bovine serum (FBS), 20 mM HEPES, and 50 μg/mL G418 sulfate. rM2-Gqi5, hM2-Gqi5, and hM4-Gqi5 cells were grown in the same medium also containing 500 μg/mL Hygromycin B. Stable rM4-Gqi5 cells were grown in DMEM containing 10% heat-inactivated FBS, 20 mM HEPES, 400 μg/mL G418 sulfate, and 500 μg/mL Hygromycin B.
For high throughput measurement of agonist-evoked increases in intracellular calcium, CHO-K1 cells stably expressing muscarinic receptors were plated in growth medium lacking G418 and hygromycin at 15,000 cells/20 μL/well in Greiner 384-well black-walled, tissue culture (TC)-treated, clear-bottom plates (VWR). Cells were incubated overnight at 37° C. and 5% CO2. […] Compound master plates were formatted in an 11 point CRC format (1:3 dilutions) in 100% DMSO with a starting concentration of 10 mM using the BRAVO liquid handler (Agilent). Test compound CRCs were then transferred to daughter plates (240 nL) using the Echo acoustic plate reformatter (Labcyte, Sunnyvale, Calif.) and then diluted into assay buffer (40 μL) to a 2× stock using a Thermo Fisher Combi (Thermo Fisher Scientific, Waltham, Mass.).
Calcium flux was measured using the Functional Drug Screening System (FDSS) 6000 (Hamamatsu Corporation, Tokyo, Japan) as an increase in the fluorescent static ratio. Compounds were applied to cells (20 μL, 2×) using the automated system of the FDSS 6000 at 4 s into the 300 s protocol and the data were collected at 1 Hz. […] Agonist activity was analyzed as a concentration-dependent increase in calcium mobilization upon compound addition. Positive allosteric modulator activity was analyzed as a concentration-dependent increase in the EC20 acetylcholine response. Antagonist activity was analyzed as a concentration-dependent decrease in the EC80 acetylcholine response. Concentration-response curves were generated using a four-parameter logistical equation in XLfit curve fitting software (IDBS, Bridgewater, N.J.) for Excel (Microsoft, Redmond, Wash.) or Prism (GraphPad Software, Inc., San Diego, Calif.).
The compound numbers correspond to the compound numbers used in Table 1.

[1] = CHO-K1 cells stably expressing hM1
[2] = CHO-K1 cells stably expressing hM1, EC20 acetylcholine response, read-out: Human M1 Emax

With “1-methyl-N-tetrahydropyran-4-yl-4-[(4-thiazol-2-ylphenyl)methyl]pyrrolo[2,3-b]pyridine-6-carboxamide [Compound 61]” the “Human M1 Emax” value (CHO-K1 cells stably expressing hM1, EC20 acetylcholine response) was 56.7% and the EC50 [1] was 840 nM.

Molecule `Cn1ncc2c(Cc3ccc(-c4cscn4)cc3)cc(C(=O)NC3CCOCC3)nc21` [Compound 1, 1-methyl-N-tetrahydropyran-4-yl-4-[(4-thiazol-4-ylphenyl)methyl]pyrazolo[3,4-b]pyridine-6-carboxamide] has an Emax [2] of 69% and an EC50 [1] of 1420 nM.

`Cn1ccc2c(Cc3ccc(-c4cscn4)cc3)cc(C(=O)NC3CCOCC3)nc21` [Compound 2, 1-methyl-N-tetrahydropyran-4-yl-4-[(4-thiazol-4-ylphenyl)methyl]pyrrolo[2,3-b]pyridine-6-carboxamide] gave an Emax [2] of 71.2% and an EC50 [1] of 230 nM.

`Cn1ccc2c(Cc3ccc(-c4cscn4)cc3)cc(C(=O)N[C@H]3CC[C@@H]3O)nc21` [Compound 3, N-[(1S,2S)-2-hydroxycyclobutyl]-1-methyl-4-[(4-thiazol-4-ylphenyl)methyl]pyrrolo[2,3-b]pyridine-6-carboxamide] showed an Emax (CHO-K1, read-out: Human M1 Emax) of 70.4% and an EC50 [1] of 360 nM.

For `Cc1nc(-c2ccc(Cc3cc(C(=O)NC4CCOCC4)nc4sccc34)cc2)co1` [Compound 4, 4-[[4-(2-methyloxazol-4-yl)phenyl]methyl]-N-tetrahydropyran-4-yl-thieno[2,3-b]pyridine-6-carboxamide], the Emax [2] was 57.9% and the EC50 [1] was 140 nM.

For `Cn1ncc2c(Cc3ccc(-n4cccn4)cc3)cc(C(=O)NC3CCOCC3)nc21` [Compound 5, 1-methyl-4-[(4-pyrazol-1-ylphenyl)methyl]-N-tetrahydropyran-4-yl-pyrazolo[3,4-b]pyridine-6-carboxamide], the Emax [2] was 67.9% and the EC50 [1] was 5940 nM.

Molecule `Cn1ncc2c(Cc3ccc(-n4cccn4)cc3)cc(C(=O)NC3CC4(COC4)C3)nc21` [Compound 6, 1-methyl-N-(2-oxaspiro[3.3]heptan-6-yl)-4-[(4-pyrazol-1-ylphenyl)methyl]pyrazolo[3,4-b]pyridine-6-carboxamide] has an Emax [2] of 69.9% and an EC50 [1] of 1730 nM.

In the case of `Cn1ncc2c(Cc3ccc(-n4cccn4)cc3)cc(C(=O)N[C@H]3CCOC[C@@H]3O)nc21` [Compound 7, N-[(3R,4S)-3-hydroxytetrahydropyran-4-yl]-1-methyl-4-[(4-pyrazol-1-ylphenyl)methyl]pyrazolo[3,4-b]pyridine-6-carboxamide], the Emax [2] is reported as 89% and the EC50 [1] is reported as 200 nM.

Molecule `Cn1ncc2c(Cc3ccc(-n4cccn4)cc3)cc(C(=O)N[C@H]3CCCC[C@@H]3O)nc21` [Compound 8, N-[(1S,2S)-2-hydroxycyclohexyl]-1-methyl-4-[(4-pyrazol-1-ylphenyl)methyl]pyrazolo[3,4-b]pyridine-6-carboxamide] has an Emax [2] of 86.6% and an EC50 [1] of 200 nM.

Work on `CCn1ccc2c(Cc3ccc(-n4cccn4)cc3)cc(C(=O)N[C@H]3CCOC[C@@H]3O)nc21` [Compound 9, 1-ethyl-N-[(3R,4S)-3-hydroxytetrahydropyran-4-yl]-4-[(4-pyrazol-1-ylphenyl)methyl]pyrrolo[2,3-b]pyridine-6-carboxamide] yielded an Emax [2] of 64.7% and an EC50 [1] of 20 nM.

For `CCn1ccc2c(Cc3ccc(-n4cccn4)cc3)cc(C(=O)N[C@H]3CCCC[C@@H]3O)nc21` [Compound 10, 1-ethyl-N-[(1S,2S)-2-hydroxycyclohexyl]-4-[(4-pyrazol-1-ylphenyl)methyl]pyrrolo[2,3-b]pyridine-6-carboxamide], the Emax [2] was 69.9% and the EC50 [1] was 60 nM.

`CCn1ccc2c(Cc3ccc(-n4cccn4)cc3)cc(C(=O)NC3CCOCC3)nc21` [Compound 11, 1-ethyl-4-[(4-pyrazol-1-ylphenyl)methyl]-N-tetrahydropyran-4-yl-pyrrolo[2,3-b]pyridine-6-carboxamide] was tested, and the Emax [2] was 74% and the EC50 [1] was 280 nM.

`CCn1ccc2c(Cc3ccc(-n4cccn4)cc3)cc(C(=O)NC3CC4(COC4)C3)nc21` [Compound 12, 1-ethyl-N-(2-oxaspiro[3.3]heptan-6-yl)-4-[(4-pyrazol-1-ylphenyl)methyl]pyrrolo[2,3-b]pyridine-6-carboxamide] showed an Emax [2] of 72.3% and an EC50 [1] of 200 nM.

Molecule `CCn1ccc2c(Cc3ccc(-n4cccn4)cc3)cc(C(=O)N[C@H]3CC[C@@H]3O)nc21` [Compound 13, 1-ethyl-N-[(1S,2S)-2-hydroxycyclobutyl]-4-[(4-pyrazol-1-ylphenyl)methyl]pyrrolo[2,3-b]pyridine-6-carboxamide] has an Emax [2] of 70.7% and an EC50 [1] of 410 nM.

With `CCn1ccc2c(Cc3ccc(-n4cccn4)cc3)cc(C(=O)N[C@H]3CCC[C@@H]3O)nc21` [Compound 14, 1-ethyl-N-[(1S,2S)-2-hydroxycyclopentyl]-4-[(4-pyrazol-1-ylphenyl)methyl]pyrrolo[2,3-b]pyridine-6-carboxamide] the Emax [2] was 69.4% and the EC50 [1] was 150 nM.

For `CCn1ccc2c(Cc3ccc(-n4cccn4)cc3)cc(C(=O)N[C@H]3CCCCC[C@@H]3O)nc21` [Compound 15, 1-ethyl-N-[(1S,2S)-2-hydroxycycloheptyl]-4-[(4-pyrazol-1-ylphenyl)methyl]pyrrolo[2,3-b]pyridine-6-carboxamide], the Emax [2] was 61.8% and the EC50 [1] was 140 nM.

Work on `Cn1ccc2c(Cc3ccc(-n4cccn4)cc3)cc(C(=O)N[C@H]3CCOC[C@@H]3O)nc21` [Compound 16, N-[(3R,4S)-3-hydroxytetrahydropyran-4-yl]-1-methyl-4-[(4-pyrazol-1-ylphenyl)methyl]pyrrolo[2,3-b]pyridine-6-carboxamide] yielded an Emax [2] of 63.4% and an EC50 [1] of 10 nM.

`Cn1ccc2c(Cc3ccc(-n4cccn4)cc3)cc(C(=O)N[C@H]3CCCC[C@@H]3O)nc21` [Compound 17, N-[(1S,2S)-2-hydroxycyclohexyl]-1-methyl-4-[(4-pyrazol-1-ylphenyl)methyl]pyrrolo[2,3-b]pyridine-6-carboxamide] gave an Emax [2] of 66.4% and an EC50 [1] of 30 nM.

Molecule `Cn1ccc2c(Cc3ccc(-n4cccn4)cc3)cc(C(=O)NC3CCOCC3)nc21` [Compound 18, 1-methyl-4-[(4-pyrazol-1-ylphenyl)methyl]-N-tetrahydropyran-4-yl-pyrrolo[2,3-b]pyridine-6-carboxamide] has an Emax [2] of 73.1% and an EC50 [1] of 180 nM.

`Cn1ccc2c(Cc3ccc(-n4cccn4)cc3)cc(C(=O)NC3CC4(COC4)C3)nc21` [Compound 19, 1-methyl-N-(2-oxaspiro[3.3]heptan-6-yl)-4-[(4-pyrazol-1-ylphenyl)methyl]pyrrolo[2,3-b]pyridine-6-carboxamide] gave an Emax [2] of 68.7% and an EC50 [1] of 110 nM.

With `Cn1ccc2c(Cc3ccc(-n4cccn4)cc3)cc(C(=O)N[C@H]3CC[C@@H]3O)nc21` [Compound 20, N-[(1S,2S)-2-hydroxycyclobutyl]-1-methy1-4-[(4-pyrazol-1-ylphenyl)methyl]pyrrolo[2,3-b]pyridine-6-carboxamide] the Emax [2] was 73.3% and the EC50 [1] was 390 nM.

`Cn1ccc2c(Cc3ccc(-c4cscn4)cc3)cc(C(=O)N[C@H]3CCOC[C@@H]3O)nc21` [Compound 21, N-[(3R,4S)-3-hydroxytetrahydropyran-4-yl]-1-methyl-4-[(4-thiazol-4-ylphenyl)methyl]pyrrolo[2,3-b]pyridine-6-carboxamide] gave an Emax [2] of 59.3% and an EC50 [1] of 20 nM.

`Cn1ccc2c(Cc3ccc(-c4cscn4)cc3)cc(C(=O)N[C@H]3CCCC[C@@H]3O)nc21` [Compound 22, N-[(1S,2S)-2-hydroxycyclohexyl]-1-methyl-4-[(4-thiazol-4-ylphenyl)methyl]pyrrolo[2,3-b]pyridine-6-carboxamide] showed an Emax [2] of 63.3% and an EC50 [1] of 40 nM.
